# Data published in patent US20090220445A1, “HAIR CARE COMPOSITIONS AND METHODS FOR INCREASING HAIR DIAMETER AND DELIVERING ADDITIONAL BENEFITS” (priority 2008, published 2009).
# System: Primary human dermal papilla cells
# Test: Synergy study: survival of metabolically stressed dermal papilla cells (ATP, Cell Titer Glo)
# Assay type: cell-based
# Settings: cells metabolically stressed 48 hours in reduced media, control 100% water
# Method: The dermal papilla, in normal human hair, is the control center for hair diameter. Increasing survival of dermal papilla cells in situ leads to increased hair diameter. Accordingly, an increase in survival of dermal papilla cells correlates with an increase in hair diameter.
# Primary human dermal papilla cells were metabolically stressed for 48 hours in reduced standard tissue culture media. During this period of stress the cells were treated with the mixtures or individual ingredients below. After 48 hr the metabolic activity of the cells was measured by the amount of ATP using the Cell Titer Glo™ kit (Promega).
smiles,measurement,setting,value
Cn1c(=O)c2c(ncn2C)n(C)c1=O [Caffeine],Survival rate: % Change from Control,0.05%,+41%
NC(=O)c1cccnc1 [Niacinamide],Survival rate: % Change from Control,0.006%,−8%
CC(C)(CO)[C@@H](O)C(=O)NCCCO [Panthenol],Survival rate: % Change from Control,0.15%,+6%
